Read-outs that look alike come from different tables or passages of the source.
Test system: gastric hypersecretion stimulated by pentagastrine
Assay: antisecretory activity on gastric hypersecretion stimulated by pentagastrine in dogs wearing a Heidenhain pouch
Type: in vivo, dog (mongrel)
Conditions: for ED50: Canis lupus familiaris, read-out: ED 50 (dose which reduced by 50% the hourly acid flow)
Protocol: Three mongrel dogs wearing Heidenhain pouches and which were kept without food for 18 hours received a venous perfusion of […] of pentagastrine per hour in a volume of 30 mls per hour for 4 hours. The secretion from the pouch was collected in a flask which was changed every 15 minutes. An hour and a half after the beginning of the perfusion process, the product to be examined was administered orally in a No. 000 gelatin coated pill. […] The doses are expressed in the product in the base form.

[1] = oral, Heidenhain pouch dogs, pentagastrine perfusion, acid flow at 3rd or 4th hour vs second hour, doses expressed as base

Row | Structure (SMILES) | ED50 [1] [mg/kg] | inhibition of gastric secretion relative to Cimetidine (oral, Heidenhain pouch dogs) | ED50 (po) [mg/kg]
1 | CN(C)S(=O)(=O)c1ccc2c(c1)N(C1CN3CCC1CC3)c1ccccc1[S+]2[O-] (single isomer, unassigned) [Example 2, 10-(1-azabicyclo[2.2.2]oct-3-yl)-N,N dimethyl-10H-phenothiazine-2-sulfonamide S-oxide] | 2.5 | as active as Cimetidine | 
2 | CN/C(=N/CCSCc1nc[nH]c1C)NC#N [Cimetidine, reference compound] |  |  | 2.3
3 | CN(C)S(=O)(=O)c1ccc2c(c1)N(C1CN3CCC1CC3)c1ccccc1[S+]2[O-] (stereo not drawn) [Example 1, 10-(1-azabicyclo[2.2.2]oct-3-yl)-N,N dimethyl-10H-phenothiaxine-2-sulfonamide S-oxide] | 2.3 | as active as Cimetidine | 
4 | CN(C)S(=O)(=O)c1ccc2c(c1)N(C1CN3CCC1CC3)c1ccccc1S2(=O)=O (stereo not drawn) [Example 3, 10-(1-azabicyclo[2.2.2]oct-3-yl)-N,N dimethyl-10H-phenothiazine-2 sulfonamide S-dioxide] | 10 |  | 

From patent publication US4435393A, “Derivatives of 10-(1-azabicyclo[2.2.2]oct-3-yl)-N,N dimethyl-10H-phenothiazine-2-sulfonamide as medicaments” (Pharmindustrie, priority 1981, dated 1984)
